# Experimental data as given in patent publication US9707220B2 (The United States of America, as represented by the …, priority 2005, dated 2017).
# Values joined by “and” are separate entries in the source; they are usually repeats but may differ in a detail not shown here. Equal values may be shown once. Marks after values point to notes of the source that are not given here.
# How the values were obtained:
# Format in all cases: in vivo, human
# [1] = test system: unmedicated, currently depressed patients meeting criteria for Major Depressive Disorder (MDD) or Bipolar Disorder (BD); assay: Example 1: double-blind randomized dose-finding study, 15-minute intravenous scopolamine infusions, MADRS depression severity in patients; parameters: key to MADRS score, Follow-up / MADRS score, Session 3, Pt. MEAN / MADRS score, Session 4, Pt. MEAN / MADRS score, Follow-up, Pt. MEAN / MADRS score, Post 2 μg/kg / MADRS score, Post 3 μg/kg / MADRS score, Post 4 μg/kg / MADRS score, Post 2 μg/kg, MEAN / MADRS score, Post 3 μg/kg, MEAN: Montgomery & Asberg Depression Rating Scale (MADRS) total score
# Protocol: Prior to each infusion, a psychiatric interview was performed using the Montgomery & Asberg Depression Rating Scale (MADRS) to monitor depression severity across sessions. Participants were monitored continuously for the development of clinically relevant side effects. Sessions were scheduled a minimum of 3 days apart and a maximum of 5 days apart when possible. Follow-up psychiatric interviews were obtained when patients were available.
# Comparisons also were made between MADRS scores obtained before and after each specific dose. […] Post evaluations for the last session were provided by the follow-up psychiatric interviews when available.
# [2] = test system: unmedicated, currently depressed patients meeting the DSM-IV criteria for Major Depressive Disorder (MDD) or Bipolar Disorder (BD); assay: Example 2: double-blind, placebo-controlled, randomized cross-over study, MADRS depression severity
# Text: (§1) Session one was designed to be single-blind during which all subjects received a placebo infusion to allow for a baseline evaluation. The next six sessions were separated into two blocks of three sessions each; one block included a series of three placebo infusions (P Block) and the other a series of three scopolamine infusions (S Block). Individuals were randomized into either the P/S (placebo/scopolamine) series or the S/P (scopolamine/placebo) series, using a double-blind design. In total, all subjects received four placebo infusions and three scopolamine infusions. Prior to infusion, unstructured psychiatric interviews were completed using the Montgomery & Asberg Depression Rating Scale (MADRS) and the Hamilton Anxiety Scale to provide evaluations of depression and anxiety severity upon entering the study (i.e., baseline 1); following the first infusion as an assessment of placebo effects (i.e., baseline 2); after all infusions associated with block 1 (i.e., last evaluation block 1); and after all infusions associated with block 2 (i.e., last evaluation block 2) obtained during a follow-up psychiatric interview. Sessions were scheduled a minimum of 3 days apart and a maximum of 5 days apart when possible.
# (§2) Patient diagnosis and features that contribute to prognosis, including history of response to conventional treatment, chronicity and comorbid anxiety disorders, are summarized in Table III.
# (§3) Session one was designed to be single-blind during which all subjects received a placebo infusion to allow for a baseline evaluation in all subjects. Subsequently, individuals were randomized into either an P/S or S/P double-blind design whereby P is defined as a series of three sessions during which participants received placebo and S is defined as a series of three sessions during which participants received scopolamine. […] Prior to each infusion, unstructured psychiatric interviews were completed using the MADRS and the Hamilton Anxiety Scale. Sessions were scheduled a minimum of 3 days apart and a maximum of 5 days apart when possible. Follow-up psychiatric interviews were obtained to assess the effects of session seven. […] Repeated measures ANOVA was used to evaluate session differences, group differences and session X group effects. In the presence of significant ANOVA results, t-tests were used for within and between group comparisons to identify specific effects.
# [3] = test system: unmedicated, currently depressed patients meeting the DSM-IV criteria for Major Depressive Disorder (MDD) or Bipolar Disorder (BD); assay: Example 2: double-blind, placebo-controlled, randomized cross-over study, Hamilton Anxiety Scale
# Text: as §1, §2, §3
# [4] = 4.0 μg/kg iv, three infusions, p<0.005
# [5] = both treatment groups, no change following placebo
compound,measurement,setting,value
CN1C2C[C@H](OC(=O)C(CO)c3ccccc3)CC1[C@H]1OC21 (stereo partly shown) [scopolamine],"MADRS score, Follow-up","[1]; individual patient, follow-up interview after all four sessions",37 and 16 and 2 and 9 and 14
same,"MADRS score, Session 2","[1]; individual patient, scored before the Session 2 infusion, after the Session 1 dose, iv 2, 3 or 4 μg/kg or placebo in random order, sessions 3-5 days apart",36^d and 44^a and 25^a and 32^C and 18^b and 29^C and 15^d
same,"MADRS score, Session 3","[1]; individual patient, scored before the Session 3 infusion, after two earlier sessions, doses in random order",35^b and 34^d and 31^b and 4^C and 25^a and 14^a and 22^d and 7^a
same,"MADRS score, Session 4","[1]; individual patient, scored before the Session 4 infusion, after three earlier sessions, doses in random order",35^a and 22^b and 32^d and 8^d and 28^d and 11^d and 17^a and 7^b
same,"MADRS score, Post 2 μg/kg","[1]; individual patient, scored in the next session, 3 to 5 days after 2 μg/kg iv",37 and 32 (2×) and 4 and 14 and 29 and 35
same,"MADRS score, Post 3 μg/kg","[1]; individual patient, scored in the next session, 3 to 5 days after 3 μg/kg iv",44 and 25 (2×) and 8 and 18 and 22 and 15 and 36
same,"MADRS score, Post 4 μg/kg","[1]; individual patient, scored in the next session, 3 to 5 days after 4 μg/kg iv",22 and 16 and 2 and 9 and 14 and 17 and 7 and 35
same,"MADRS score, Session 3, Pt. MEAN","[1]; mean of 8 patients, irrespective of session dose",21.5
same,"MADRS score, Session 4, Pt. MEAN","[1]; mean of 8 patients, irrespective of session dose, significantly less than baseline, p < 0.05",20.0*
same,"MADRS score, Follow-up, Pt. MEAN","[1]; mean of patients with follow-up, significantly less than baseline, p < 0.05",15.6*
same,MADRS scores post 4.0 μg/kg compared to baseline and pre-4.0 μg/kg measures,"[1]; p=0.0015 vs baseline, p=0.018 vs pre-dose",significantly lower
same,MADRS scores following session four compared to session one baseline,"[1]; patient group, post-hoc t-test, p=0.01",significantly lower
same,MADRS scores following session three compared to session one baseline,"[1]; patient group, post-hoc t-test, p=0.03",significantly lower
same,"Antidepressant effect, MADRS across sessions (summary)","[1]; patient group, effect primarily after the 4.0 μg/kg dose",robust and rapid antidepressant effects
same,"MADRS score, Post 2 μg/kg, MEAN","[1]; patient mean, baseline mean 29.00, pre-dose mean 22.38",26.14
same,"MADRS score, Post 4 μg/kg, MEAN","[1]; patient mean, baseline mean 29.00, pre-dose mean 23.25, p = 0.0015 vs baseline, p = 0.018 vs pre-session",15.25^#*
same,"MADRS score, Post 3 μg/kg, MEAN","[1]; patient mean, baseline mean 29.00, pre-dose mean 27.63",24.13
same,MADRS scores post 2.0 and 3.0 μg/kg compared to baseline and pre-dose,"[1]; t-tests, patient group",No other differences were significant
same,"MADRS depression severity, P/S group at end of Block 2 (scopolamine) vs baseline measures and end of Block 1",[2]; [4],significantly lower
same,"MADRS depression severity, S/P group at end of Block 1 (scopolamine) vs baseline 1 and baseline 2",[2]; [4],significantly lower
same,"MADRS depression severity, S/P group vs P/S group at last evaluation of Block 1","[2]; 4.0 μg/kg iv, three infusions, t=5.3, p<0.0001",significantly lower
same,"Depressive symptoms (mean MADRS scores, FIG. 2) following treatment",[2]; [5],significant improvement
same,"MADRS depression severity, S/P group at end of Block 2 (placebo after scopolamine) vs baseline measures","[2]; persistence of effect, p<0.005",significantly lower
same,"Hamilton Anxiety rating, P/S group at end of Block 2 (scopolamine) vs baseline 1, baseline 2 and end of Block 1","[3]; 4.0 μg/kg iv, three infusions, p<0.001, p=0.02, p=0.002",significantly lower
same,"Hamilton Anxiety rating, S/P group at end of Block 1 (scopolamine) vs baseline measures","[3]; 4.0 μg/kg iv, three infusions, p<0.01",significantly lower
same,"Hamilton Anxiety score, S/P group vs P/S group at last evaluation of Block 1","[3]; 4.0 μg/kg iv, three infusions, t=7.29, p=0.04",significantly lower
same,"Anxiety symptoms (mean Hamilton Anxiety scores, FIG. 3) following treatment",[3]; [5],significant improvement
same,"Hamilton Anxiety rating, S/P group at end of Block 2 (placebo after scopolamine) vs baseline","[3]; persistence of effect, p=0.01",significantly lower
